Test results published in ChEMBL document CHEMBL1201862, “PubChem BioAssay data set” (2004).
Values joined by “and” are separate entries in the source; they are usually repeats but may differ in a detail not shown here. Identical values can stand only once. Active and inactive are the calls of the source.

Experiments:
[1] = test system: H4; experiment: Luminescence Cell-Based Dose Response HTS to Identify Activators of 5'UTR Stem-Loop Driven Prion Protein mRNA Translation in H4 Neuroglioblastoma Cells. [Related pubchem assays: 1829 (Project Summary), 1814 (Primary HTS)]; type: functional; details: Homo sapiens
[2] = Luminescence Cell-Based Dose Confirmation HTS to Identify Activators of 5'UTR Stem-Loop Driven Alpha-Synuclein mRNA Translation in H4 Neuroglioblastoma Cells. [Related pubchem assays: 1829 (Project Summary), 1814 (Primary HTS)]; type: functional
[3] = target: DNA dC->dU-editing enzyme APOBEC-3A (Homo sapiens, UniProt P31941); experiment: Dose Response confirmation of small molecule APOBEC3A DNA Deaminase Inhibitors via a fluorescence-based single-stranded DNA deaminase assay. [Related pubchem assays (depositor defined):AID493011, AID493024]; type: functional
[4] = target: DNA dC->dU-editing enzyme APOBEC-3G (Homo sapiens, UniProt Q9HC16); type: functional;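 further: Dose-response counterscreen measuring inhibition of APOBEC3G DNA deaminase activity, run while confirming APOBEC3A inhibitors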
[5] = Luminescence Cell-Based Dose Response HTS to Identify Activators of Luciferase Translation or Activity in H4 […] Cells. [Related pubchem assays: 1829 (Project Summary), 1814 (Primary HTS)]; type: functional
[6] = target: Eukaryotic translation initiation factor 4E (Mus musculus, UniProt P63073); experiment: eIF4E–eIF4G protein interaction inhibitors, dose response, biochemical, TR-FRET (AID 855); type: functional;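 further: potency for disrupting eIF4E binding to eIF4GI seen as loss of FRET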
[7] = target: T1, Mannose-6-phosphate isomerase (Homo sapiens, UniProt P34949); experiment: PMI enzyme inhibitors, confirmation, biochemical, fluorescence intensity (AID 1535)
T1 sequence (P34949 whole entry): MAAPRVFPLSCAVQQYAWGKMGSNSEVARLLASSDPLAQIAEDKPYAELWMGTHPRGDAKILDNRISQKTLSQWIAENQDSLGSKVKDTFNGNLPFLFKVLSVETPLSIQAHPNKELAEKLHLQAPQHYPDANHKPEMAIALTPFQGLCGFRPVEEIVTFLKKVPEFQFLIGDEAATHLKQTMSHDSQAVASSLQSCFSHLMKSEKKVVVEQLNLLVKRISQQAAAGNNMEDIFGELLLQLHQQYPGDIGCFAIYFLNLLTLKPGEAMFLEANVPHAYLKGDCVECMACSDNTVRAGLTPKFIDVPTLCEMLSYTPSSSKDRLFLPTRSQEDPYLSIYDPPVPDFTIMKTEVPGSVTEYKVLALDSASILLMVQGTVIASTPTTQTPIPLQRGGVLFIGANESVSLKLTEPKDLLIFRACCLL

[8] = target: T2, Phosphomannomutase 2 (Homo sapiens, UniProt O15305); experiment: Counter screen SAR assay for PMM2 inhibitors via a fluorescence intensity assay. [Related pubchem assays (depositor defined):AID1545, AID1574]
T2 sequence (O15305 whole entry): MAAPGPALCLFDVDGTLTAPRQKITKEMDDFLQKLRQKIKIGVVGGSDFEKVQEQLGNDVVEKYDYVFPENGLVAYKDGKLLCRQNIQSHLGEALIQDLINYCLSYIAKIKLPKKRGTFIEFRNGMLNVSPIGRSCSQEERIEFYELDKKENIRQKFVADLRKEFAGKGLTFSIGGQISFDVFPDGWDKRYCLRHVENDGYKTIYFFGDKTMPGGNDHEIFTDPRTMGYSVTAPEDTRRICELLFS

[9] = test system: HEK293; experiment: cells; details: Homo sapiens;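 further: cells exposed to compound for 14 hours overnight before viability readout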
[10] = target: T3, Nucleotide-binding oligomerization domain-containing protein 1 (Homo sapiens, UniProt Q9Y239); experiment: NOD1 signaling inhibitors, SAR follow-up, revised (AID 2333); type: functional
T3 sequence (Q9Y239 whole entry): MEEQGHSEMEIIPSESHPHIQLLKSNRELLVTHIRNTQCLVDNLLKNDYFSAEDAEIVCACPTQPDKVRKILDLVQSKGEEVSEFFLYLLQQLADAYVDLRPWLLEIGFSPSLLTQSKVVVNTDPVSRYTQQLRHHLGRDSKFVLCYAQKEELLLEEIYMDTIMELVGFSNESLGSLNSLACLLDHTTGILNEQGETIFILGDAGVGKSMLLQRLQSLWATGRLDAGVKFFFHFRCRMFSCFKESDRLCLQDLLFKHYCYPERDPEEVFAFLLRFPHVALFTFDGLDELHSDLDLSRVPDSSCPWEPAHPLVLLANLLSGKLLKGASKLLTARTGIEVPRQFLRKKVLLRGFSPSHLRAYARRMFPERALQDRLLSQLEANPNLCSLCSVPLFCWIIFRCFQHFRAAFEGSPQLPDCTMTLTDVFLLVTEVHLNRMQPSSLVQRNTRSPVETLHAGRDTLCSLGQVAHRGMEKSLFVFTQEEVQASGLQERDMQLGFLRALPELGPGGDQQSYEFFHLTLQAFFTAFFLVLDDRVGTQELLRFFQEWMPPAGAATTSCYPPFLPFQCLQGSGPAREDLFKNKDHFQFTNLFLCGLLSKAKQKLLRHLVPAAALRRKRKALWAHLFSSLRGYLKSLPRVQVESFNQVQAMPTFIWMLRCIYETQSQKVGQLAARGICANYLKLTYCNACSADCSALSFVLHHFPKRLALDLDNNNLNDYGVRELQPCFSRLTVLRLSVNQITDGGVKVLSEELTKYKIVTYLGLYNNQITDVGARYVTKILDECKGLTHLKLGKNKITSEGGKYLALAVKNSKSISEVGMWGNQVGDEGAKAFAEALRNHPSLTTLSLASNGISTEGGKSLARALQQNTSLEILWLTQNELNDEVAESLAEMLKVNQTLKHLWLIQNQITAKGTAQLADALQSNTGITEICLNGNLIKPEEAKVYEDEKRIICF

[11] = target: Tumor necrosis factor (Homo sapiens, UniProt P01375); experiment: TNFa-triggered NF-kB activation inhibitors, SAR follow-up, cell-based, revised (AID 2337); type: functional
[12] = cells; type: functional
[13] = THP-1 cell cytotoxicity, dose response, cytotoxicity control for non-replicating M. tuberculosis project (AID 489025); type: functional
[14] = test system: H9c2; experiment: cells; type: functional, cell-based; details: Rattus norvegicus, H9c2, Myocardium;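 further: confirmatory concentration-response retest of ultra-high-throughput screening hits for modulation of myocardial damage; cell death induced by hydrogen peroxide oxidative stress; compound pretreatment for 60 min then peroxide exposure for 2 h; potency is for protecting the cells against peroxide damage rather than for killing them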
[15] = inhibitors of firefly luciferase expression or activity, dose response, H4 neuroglioma cells, luminescence (AID 1990); type: functional, cell-based
[16] = NIH-3T3 fibroblast cytotoxicity, dose response, cytotoxicity control, cell-based, fluorescence, Alamar Blue, secondary assay (AID 2327); type: functional;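 further: NIH-3T3 mouse fibroblasts cultured with fluconazole at 8 µg/mL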
[17] = Luminescence Cell-Based Dose Response HTS to Identify Inhibitors of 5'UTR Stem-Loop Driven Prion Protein mRNA Translation in H4 Neuroglioblastoma Cells. [Related pubchem assays: 1827 (Project Summary), 1813 (Primary HTS)]; type: functional
[18] = cytotoxicity in HEK-293T cells, dose response, cytotoxicity control for TCR NF-kB inhibitor project, luminescence, T-cell screen hits (AID 489026); type: functional, cell-based;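 further: cells exposed to compound about 14 hours before the viability readout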
[19] = C. albicans growth with fluconazole, confirmation, fluorescence, retest (AID 2467); type: functional, cell-based
[20] = inhibitors of SNCA 5'UTR-driven reporter translation, confirmation, H4 neuroglioma cells, luminescence (AID 1988); type: functional, cell-based

Sequence of DNA dC->dU-editing enzyme APOBEC-3A (P31941 whole entry): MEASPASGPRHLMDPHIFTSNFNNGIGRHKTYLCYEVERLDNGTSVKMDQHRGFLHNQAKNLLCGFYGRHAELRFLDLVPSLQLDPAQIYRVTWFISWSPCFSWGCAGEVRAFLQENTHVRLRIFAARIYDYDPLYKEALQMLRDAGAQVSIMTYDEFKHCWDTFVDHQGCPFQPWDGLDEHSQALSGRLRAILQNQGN
Sequence of DNA dC->dU-editing enzyme APOBEC-3G (Q9HC16 whole entry): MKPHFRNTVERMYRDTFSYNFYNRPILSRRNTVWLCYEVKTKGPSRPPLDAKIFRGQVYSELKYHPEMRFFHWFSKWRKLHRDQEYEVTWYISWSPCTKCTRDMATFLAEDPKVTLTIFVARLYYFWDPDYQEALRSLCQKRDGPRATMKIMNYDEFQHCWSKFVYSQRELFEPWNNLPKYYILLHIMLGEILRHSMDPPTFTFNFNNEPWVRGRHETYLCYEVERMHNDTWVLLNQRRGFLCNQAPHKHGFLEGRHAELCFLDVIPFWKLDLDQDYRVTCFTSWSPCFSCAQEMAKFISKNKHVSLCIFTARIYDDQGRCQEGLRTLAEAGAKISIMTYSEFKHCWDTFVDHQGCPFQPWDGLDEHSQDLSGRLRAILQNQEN
Sequence of Tumor necrosis factor (P01375 whole entry): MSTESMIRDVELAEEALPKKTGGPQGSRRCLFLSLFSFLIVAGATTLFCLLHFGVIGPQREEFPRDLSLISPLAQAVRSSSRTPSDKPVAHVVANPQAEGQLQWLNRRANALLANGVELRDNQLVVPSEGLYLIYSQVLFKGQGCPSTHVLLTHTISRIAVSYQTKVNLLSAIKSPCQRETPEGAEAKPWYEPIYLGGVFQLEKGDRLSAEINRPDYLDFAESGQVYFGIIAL
Sequence of Eukaryotic translation initiation factor 4E (P63073 whole entry): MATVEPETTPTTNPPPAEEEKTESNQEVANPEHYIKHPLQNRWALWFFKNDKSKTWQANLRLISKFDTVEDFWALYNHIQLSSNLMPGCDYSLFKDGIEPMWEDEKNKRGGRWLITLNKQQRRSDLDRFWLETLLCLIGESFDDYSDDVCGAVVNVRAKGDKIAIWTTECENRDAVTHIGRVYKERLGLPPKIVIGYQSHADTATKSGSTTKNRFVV

## CCCn1nc(NC(=O)COC)c2cc3cc(C)ccc3nc21
[1]
  EC50: > 120 µM (inconclusive)
[2]
  EC50: 3.88 µM (active)
[3]
  IC50: 2.71 µM (active)
[4]
  IC50: 2.89 µM (active)
[5]
  EC50: 12.9 µM (active)

## S=C(Nc1cccc(Cl)c1Cl)N1CCC2(CC1)OCCO2
[6]
  IC50: 50 µM (inactive)

## Clc1nss/c1=N\c1nccs1
[7]
  IC50: 32.9 µM (active) and 4.34 µM (active)
[8]
  IC50: > 100 µM (inactive)

## O=c1c2ccccc2sn1-c1nc2ccc(SC(F)F)cc2s1
[7]
  IC50: > 50 µM (inactive)
[8]
  IC50: > 100 µM (inactive)

## O=c1c2ccccc2sn1-c1ncc(Br)s1
[7]
  IC50: > 50 µM (inactive)
[8]
  IC50: > 100 µM (inactive)

## COc1ccc(C(=O)Nc2sc3c(c2C(=O)O)CC(C)(C)OC3)cc1OC
[9]
  IC50: > 20 µM (inactive)
[10]
  IC50: 15.1 µM (active)
[11]
  IC50: > 20 µM (inactive)

## O=C(COc1ccc(F)cc1)N/N=C/c1cccc2cccnc12
[12]
  IC50: 17.2 µM (active)
[13]
  CC50: 24.8 µM (active)
[14]
  IC50: 20.8 µM (active)

## CC[n+]1cc(C)ccc1C=Cc1ccc(N(C)C)cc1
[15]
  EC50: 11.7 µM (active)
[16]
  EC50: 58.6 µM (active)
[17]
  EC50: 65.4 µM (active)
[3]
  IC50: 2.73 µM (active)
[18]
  IC50: > 80 µM (inactive)
[4]
  IC50: 4.02 µM (active)
[19]
  EC50: 1.25 µM (active)
[20]
  EC50: 10.4 µM (active)
